Source: patent US20190030018A1 (Celgene Corporation, priority 2017, published 2019)
≈ marks a conversion by molar mass, not a printed value.

Assays:
physchem [1] = type: physicochemical
Source text: “Compound 1, Form C” or “Form C” or “API”” in the Examples herein refers to polymorph Form C of 2-(4-chlorophenyl)-N-((2-(2,6-dioxopiperidin-3-yl)-1-oxoisoindolin-5-yl)methyl)-2,2-difluoroacetamide. “Compound 1, Form A” or “Form A” in the Examples herein refers to polymorph Form A of 2-(4-chlorophenyl)-N-((2-(2,6-dioxopiperidin-3-yl)-1-oxoisoindolin-5-yl)methyl)-2,2-difluoroacetamide.

[2] = system: GSPT1 and mTORC1 effectors in BON cells; experiment: Western blot of BON cell lysates after 120 h treatment; type: cell-based
Procedure: BON cells were cultured in DMEM: F12K media containing 10% fetal bovine serum and penicillin/streptomycin antibiotics. […] Cells were harvested and probed with antibodies for western blots and imaged using a Li-Cor Odyssey imaging system. All total and phosphorylated antibodies were obtained from Cell Signaling Technology.

[3] = system: primary human tumor xenograft model GA0087; experiment: HuPrime gastric cancer xenograft GA0087 model, in vivo efficacy; set-up: species or system female BALB/c nude mice; conditions: single agent
Source text: Tumor fragments from stock mice were harvested and used for inoculation into mice. Each mouse was inoculated subcutaneously at the right flank with primary human tumor xenograft model GA0087 tumor fragment (P7, 2-3 mm in diameter) for tumor development. […] After tumor inoculation, the animals were checked daily for morbidity and mortality. At the time of routine monitoring, the animals were checked for any effects of tumor growth and treatments on normal behavior such as mobility, food and water consumption, body weight gain/loss, eye/hair matting and any other abnormal effect. Death of euthanized mouse was recorded. All groups were terminated on Day 40. Three tumors in each group, with tumor volume near median of each group were collected. Plasma of the same mice were collected. For comparison among three or more groups, one-way ANOVA was performed followed by multiple comparison procedures. All data were analyzed using SPSS 18.0. P values <0.05 is considered to be statistically significant.

[4] = system: IDH2 mutant cell line TF1-R140Q; experiment: Proliferation (total, HSC and progenitor cell count) in the TF1 assay; type: cell-based
Procedure: Cells were plated at a density of 0.2e^6 cells/ml of 2 ml culture in 6 well plates.
TF1 cells were cultured in the following media: RPMI containing HEPES and L-glutamine, 10% FBS, Pen/Strep, G418 (final conc 500 μg/ml), and GM-CSF (final conc 5 ng/ml). The cells were cultured for 7 days, with or without compound treatment as described in FIG. 91.
For the hemoglobinization assay, TF1 cells were washed three times with PBS to remove residual GM-CSF then plated at (100,000 cells/ml). Cells were then induced to differentiate using EPO (2 unit/ml). Induction continued for 7 days with changing media on 4th day and adding media with fresh EPO. The cell pellets were collected and imaged for hemoglobinization content (as a surrogate for differentiation into blood lineage). Cells were pelleted, washed, stained with a panel of antibodies and analyzed by flow cytometry, using the following antibodies: […]

[5] = system: human QGP1 pancreatic somatostatinoma xenografts; conditions: mouse, in vivo
Procedure: Treatment began on Day 1 in nine groups of mice (n=10) with established subcutaneous QGP1 tumors. […] Tumors were measured using calipers twice each week to the end of the study on Day 52. Three tumors at or near the group median tumor volume 2000 mm^3 endpoint were sampled from each group.
Treatment efficacy was based on tumor growth inhibition (TGI), defined as the difference between the final (Day 52) median tumor volumes (MTVs) of treated and control mice. The results were analyzed utilizing the Mann-Whitney U-test, and were deemed statistically significant at P≤0.05. Drug tolerability was assessed by body weight measurements and by frequent observation of treated animals.

[6] = system: BaF3 cells expressing hCRBN, hCRBN and JAK2 wt, or hCRBN and JAK2-V617F; experiment: Combination studies with JAK2 inhibitors in engineered BaF3 cells, CellTitre-Glo after 3 days; type: cell-based; conditions: IL3 dependent BaF3 lines
Procedure: (§1) Everolimus was included as a control. The cell viability was then measured by CellTitre-Glo® after 3 days.

[7] = system: IL3 independent JAK2 V617F BaF3 cells; experiment: as above; type: cell-based; conditions: compared to the IL3 dependent lines
Procedure: as §1

[8] = system: GSPT1, Mcl-1, Bcl-2, cleaved caspase 3 in KG-1 cells; experiment: KG-1 western blots, 16 h; type: cell-based
Procedure: KG-1 cells were seeded in 6 well tissue culture plates at 500,000 cells per mL, 4 mL per well. […] Cells were then washed twice with cold PBS and lysed with M-PER lysis buffer (Thermo) supplemented with 150 mM NaCl and Halt protease and phosphatase inhibitor cocktail (Thermo) on ice for 30 min. Crude lysates were clarified by centrifugation (14000 rpm, 10 min, 4° C.) and total protein quantified by BCA assay. GSPT1 (Abcam, ab49878), Mcl-1 (CST, 4572), Bcl-2 (CST, 4223), cleaved caspase 3 (CST, 9664), and GAPDH (Santa Cruz, sc-47724) levels were probed by western and imaged on a LiCor infrared imager.

physchem [9] = type: physicochemical; conditions: 25 °C, aqueous with cosolvent or surfactant or cyclodextrin, thermodynamic from solid, Solubility at 25° C. (mg/mL)
Procedure: Two studies were performed to evaluate the supersaturation risks of Kleptose based formulations. […] The second study is intended to evaluate the kinetics of drug precipitation in Formulation Ib.
In this experiment, ten solutions were prepared by dissolving Kleptose and formic acid in WFI. The Kleptose concentration in all the ten solutions varied from 30 mg/mL to 250 mg/mL, while the formic acid concentration was kept constant at 1.65 mg/mL as used in the bulk solution of formulation Ib. […] Then the sample of each solution was taken and centrifuged for assay testing.

## O=C1CCC(N2Cc3cc(CNC(=O)C(F)(F)c4ccc(Cl)cc4)ccc3C2=O)C(=O)N1 (stereo not drawn) [Compound 1, 2-(4-chlorophenyl)-N-((2-(2,6-dioxopiperidin-3-yl)-1-oxoisoindolin-5-yl)methyl)-2,2-difluoroacetamide]
Physchem [1]
  Hygroscopicity: Not hygroscopic
  Solid State Stability: DS is physically stable under all storage conditions.
Physchem [1]; pH 5
  chemical stability in solution: chemically instable in solution above pH 5
Physchem [1]; water
  solubility: ≤ 1 µg/mL
[2]
  GSPT1 degradation: dose dependent GSPT1 degradation
  effect on mTORC1 effectors (p4EBP1, phosphorylation of S6): no direct effect
[3]
  tumor growth inhibition (mean tumor volume): showed tumor growth inhibition
[3]; 1.25 mg/kg and 2.5 mg/kg
  anti-tumor activity: moderate anti-tumor activity
[3]; 5 mg/kg
  anti-tumor activity: prominent anti-tumor activity
[4]
  proliferation (total, HSC and progenitor cell count): inhibition of proliferation
[5]
  weight loss: 1.6-6.8%
[6]
  difference in single agent effect on cell viability between cell lines: no difference
[7]
  single agent sensitivity: more sensitive
[8]
  Mcl-1 levels: reduce levels of Mcl-1
Physchem [9]
  solubility at 72 h: 86 µg/mL (≈ 186 µM)
